Reference: patent publication US20070075630A1, “Organic compositions” (priority 2005, published 2007)

Test: solubility of organic semiconductor in solvent (Table 1, formulation and processing)
Type: physicochemical
Conditions: for solubility in THF: solvent THF

| solubility (in words, compared with 6PTTP6) (solvent not stated) | SMILES | solubility in THF |
| --- | --- | --- |
| Solubility like 6PTTP6 | CCCOCCc1ccc(-c2ccc(-c3ccc(-c4ccc(CCOCCC)cc4)s3)s2)cc1 [3O2PTTP2O3, 5,5═-Bis(4-(propxyethyl)phenyl)-2,2′-bithiophene] |  |
|  | CC(C)CCCC(C)CCOc1ccc(-c2ccc(-c3ccc(-c4ccc(OCCC(C)CCCC(C)C)cc4)s3)s2)cc1 (stereo not drawn) [8(3,7Me)-O-PTTP-O- 8(3,7Me), 5,5′-bis(4-(3,7-dimethyloctyloxy)phenyl)-2,2′-bithiophene] | solubility in THF about 12,000 ppm DCS: mp = 192° C., |
|  | C=CC(C=C)OC(=O)CCCCCOc1ccc(-c2ccc(-c3ccc(-c4ccc(OCCCCCC(=O)OC(C=C)C=C)cc4)s3)s2)cc1 [6-[4-(5′-[5-(1-Vinyl-allyloxycarbonyl)-pentyloxy]-phenyl}-[2,2′]bithiophenyl-5-yl)-phenoxy]-hexanoic acid 1-vinyl-allyl ester] | well soluble in THF (131,000 ppm) |
|  | CC(C)(C)[Si](OCCCCCCOc1ccc(-c2ccc(-c3ccc(-c4ccc(OCCCCCCO[Si](c5ccccc5)(c5ccccc5)C(C)(C)C)cc4)s3)s2)cc1)(c1ccccc1)c1ccccc1 [6(6TBDPSO)-O- PTTP-O- 6(6TBDPSO), 5,5′-Bis-{4-[6-(tert-butyl-diphenyl-silanyloxy)-hexyloxy]-phenyl}-[2,2′]bithiophenyl] | # THF (about 310,000 ppm) |
|  | CCCCC(C)COc1ccc(-c2ccc(-c3ccc(-c4ccc(OCC(C)CCCC)cc4)s3)s2)cc1 (stereo not drawn) [6(2Me)-O-PTTP-O- 6(2Me), 5,5′-bis(4-(2-methylhexyloxy)phenyl)-2,2′-bithiophene] | sufficiently soluble in THF (about 61,000 ppm) DSC: mp = 197 °C |
|  | CCC(CC)COc1ccc(-c2ccc(-c3ccc(-c4ccc(OCC(CC)CC)cc4)s3)s2)cc1 [4(2Et)-O-PTTP-O- 4(2Et), 5,5′-bis(4-(2-ethylbutyloxy)phenyl)-2,2′-bithiophene] | solubility in THF about 4,900 ppm |
|  | CCCCCC(CC)Oc1ccc(-c2ccc(-c3ccc(-c4ccc(OC(CC)CCCCC)cc4)s3)s2)cc1 (stereo not drawn) [6(1Et)-O-PTTP-O- 6(1Et), 5,5═-Bis-[4-(1-ethyl-hexyloxy)-phenyl]-[2,2′]bithiophenyl] | Well soluble in THF (about 330,000 ppm) DSC: mp = 97-102° C., (broad transition) |
|  | CCCCCC(C)Oc1ccc(-c2ccc(-c3ccc(-c4ccc(OC(C)CCCCC)cc4)s3)s2)cc1 (stereo not drawn) [6(1Me)-O-PTTP-O- 6(1Me), 5,5′bis(4-(1-methylhexyloxy)phenyl)-2,2′-bithiophene] | ~89,000 ppm |
|  | CCCCCCOc1ccc(-c2ccc(-c3ccc(-c4ccc(OCCCCCC)cc4)s3)s2)cc1 [6-O-PTTP-O-6, 5,5′-bis(4-hexyloxyphenyl)-2,2′-bithiophene] | solubility in THF about 600 ppm, lowest value by far. Differential scanning calorimetry |
|  | CC(CO)COc1ccc(-c2ccc(-c3ccc(-c4ccc(OCC(C)CO)cc4)s3)s2)cc1 (stereo not drawn) [3(3OH,2Me)-O-PTTP- O-3(3OH,2Me), 3-(4-{5′-[4-(3-Hydroxy-2-methyl-propoxy)-phenyl]-[2,2′]bithiophenyl-5-yl}-phenoxy)-2-methyl-propan-1-ol] | Low solubility in THF (600 ppm) |
|  | CC(C)CCCOc1ccc(-c2ccc(-c3ccc(-c4ccc(OCCCC(C)C)cc4)s3)s2)cc1 [5(4Me)-O-PTTP-O-5(4Me), 5,5′-bis(4-(4-methylpentyloxy)phenyl)-2,2′-bithiophene] | solubility in THF about 5400 ppm. DSC: mp =250° C., smaller |
|  | CC(COc1ccc(-c2ccc(-c3ccc(-c4ccc(OCC(C)COC5CCCCO5)cc4)s3)s2)cc1)COC1CCCCO1 (stereo not drawn) [3(3THPO,2Me)-O-PTTP- O-3(THPO,2Me), 5,5′-Bis-[4-(2-methyl-propoxy-tetrahydro-pyran)-phenoxy]-[2,2′]bithiophenyl] | Well soluble in THF (about 75,000 ppm) |
